The source of these data is patent publication US20220062258A1, “Heterocyclic derivatives” (Merck Patent GmbH, priority 2019, published 2022).

The target of test [1] is T1, MetAP-2 (Homo sapiens, UniProt P50579). Description: Biochemical activity testing of MetAP-2 (enzyme-coupled assay, Met-Ala-Ser substrate). Further details: N-terminal His tag human rec MetAP2 (prepared in house, AA 2-478, final concentration (fc) 123 nM); His tag (N); TEV cleavage site (N); made in house. On the procedure: Biochemical Activity Testing of MetAP-2
MetAP-2 activity was determined by an enzyme-coupled assay using the tripeptide Met-Ala-Ser (MAS) as substrate and recombinant human MetAP-2 (His-Tev-MetAP-2, prepared at Merck). The released methionine is converted by L-amino acid oxidase (AAO) to oxidized Methionine and hydrogen peroxide is released. In a second step horse radish peroxidase catalyzes the oxidation of the leuko dye dianisidine to oxidized dianisidine using hydrogen peroxide as co-substrate. The produced dianisidine ox was detected photometrically as increase in absorbance at 450 nm. Met-AP2 activity was determined in a kinetic measurement mode. The release of one molecule methionine corresponds to the production of one molecule dianisidine ox. The MetAP2 enzymatic activity is directly corresponding to the increase in absorbance per time.
In detail, the assay was performed in 384 well microtiter plate (Greiner 78110 MTP, transparent) in a total reaction volume of 50 μl at 22° C. 0.35 μg of N-terminal His tag human rec MetAP2 (prepared in house, AA 2-478, final concentration (fc) 123 nM), 1 unit horse radish Peroxidase (Roche, Mannheim), 0.02 unit L-amino acid oxidase (Merck, Darmstadt), 0.6 mM dianisidine (Merck, Darmstadt, dissolved in 50 mM HCl, 10% DMSO) were incubated in the absence or presence of the test compound (10 dilution concentrations) in 100 mM Hepes, 50 mM NaCl, 50 μM MnCl2 at pH 7.0 for 15 min at 22° C. The reaction was started by the addition of 500 μM (fc) MAS peptide (Merck, Darmstadt). After mixing the first absorbance measurement was performed on an Envision multimode reader (Perkin-Elmer, Waltham) at wavelength of 450 nm. The reaction was incubated at 22° C. for additional 45 min and the second absorbance measurement was performed. The increase of absorbance per time was determined. The control value used was the inhibitor-free reaction with 0.5% DMSO (fc). As pharmacological inhibitor control Fumagillin (Merck, Darmstadt) in a final concentration of 5 μM was used. The inhibitory values (IC50) were determined using the program ASSAY ANALYZER® from GeneData (Basel, Switzerland).
Target sequence in this assay (P50579 2-478): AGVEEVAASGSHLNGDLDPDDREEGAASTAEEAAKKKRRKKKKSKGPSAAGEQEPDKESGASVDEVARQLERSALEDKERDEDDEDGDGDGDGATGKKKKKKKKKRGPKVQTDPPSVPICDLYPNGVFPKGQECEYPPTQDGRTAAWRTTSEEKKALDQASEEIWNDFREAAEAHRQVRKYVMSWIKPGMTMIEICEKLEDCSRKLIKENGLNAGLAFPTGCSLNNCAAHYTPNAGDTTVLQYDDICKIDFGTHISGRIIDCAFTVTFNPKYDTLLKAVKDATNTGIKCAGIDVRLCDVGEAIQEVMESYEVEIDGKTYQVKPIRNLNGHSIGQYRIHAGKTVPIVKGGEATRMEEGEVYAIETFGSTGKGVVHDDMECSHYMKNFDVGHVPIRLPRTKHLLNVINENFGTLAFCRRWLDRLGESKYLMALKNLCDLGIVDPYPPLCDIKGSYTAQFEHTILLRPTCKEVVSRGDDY

Test [2] relates to HUVEC primary endothelial cells. Description: HUVEC proliferation assay (CyQUANT Direct). As to conditions: Homo sapiens, 72 h, 3 days incubation. Format: cell-based. On the procedure:
HUVEC Proliferation Assay
Proliferation of HUVEC primary endothelial cells was used as cell-based mechanistical assay.^25 Applying the CyQUANT@ Direct Cell Proliferation Assay (Invitrogen C35011) which is based on a cell-permeant fluorescent DNA-binding dye, DNA content is used as a direct measure for cell number. Pooled HUVEC cells (Promocell C-12203) are cultivated in the medium supplied by Promocell (Cat No C-22020) for maximum 4 passages. For the assay 500 cells/well are seeded into black 384-well culture plates with clear bottom in 70 μl culture medium and incubated for 6 hours at 37° C., 5% CO2. 10 μl prediluted test compounds are added and cells incubated for 3 days at 37° C., 5% CO2 before measurement of DNA content. CyQUANT detection reagent is prepared according to the manufacturers protocol, 20 μl/well added and incubated at 37° C., 5% CO2 for at least 1 h before measurement of fluorescence at Envision multimode reader (Perkin-Elmer, Waltham) with excitation 480 nm and emission 535 nm (bottom read mode). The assay is performed as dose response with 10 compound dilutions. Inhibitory values (IC50) were determined using the program ASSAY ANALYZER® from GeneData (Basel, Switzerland).

Test [3] deals with T1, MetAP-2. Description: Degradation of MetAP-2 in HCT116 cells (Western blot, MetAp2/GAPDH signal). The class given is cell-based. Set-up: endogenous in cells; host or cells: HCT116. As to conditions: 0.1 μM, 24 hrs, HTC116 cells; <1 means degradation. On the procedure:
See scans below. […] The initial MetAP-2 degradation results were obtained after 24 h incubation of the compounds in three different concentrations (0.1; 1; 10 μM), cell lysis, SDS-PAGE separation, blotting and antibody aided detection.
Comparison of MetAP2 protein levels in HTC116 cells after compound treatments at different concentrations and time points. As control, DMSO was used and its values set as “1”. MetAp2 values <1 means degradation.
2. Exemplary Testing of the Compound
HCT116 cells were sown in 6-well plates. Pipette 1 mL fresh medium to every well and incubate for at least 1 h (37° C., 5% CO2, 95% rH).
Harvest and count cells in Vi-Cell. Equinr. 70198475 Adjust cell concentration to 0.35e^6 cells/mL and add 1 mL of cell suspension (total 0,35e^6 cells/well).
Incubate cells for 24 hours (37° C., 5% CO2, 95% rH)
HCT116: 24 h: ˜50% confluent before treatment
Compounds will be thawed the first time, stock: 10 mM; final concentration: 10 μM & 1 μM & 0.1 μM
Treatment with DMSO based solution with Digital Dispenser: HCT116 platte 2A1.jpg_meta.xml • create new dispensing protocol for compound • apply name of test compound and its stock concentration (in mM) for testing • 3×1:10 dilution series • final 0.3% DMSO, DMSO normalization for every well • shaking after compound/DMSO addition
Incubate cells for further 24 hours (37° C., 5% C02, 95% rH)
HCT116: 70-80% confluent before lysis • after incubation cells were lysed with RIPA lysis buffer including Halt™
all steps performed on ice or at 4° C. • aspirate supernatant from cells • wash cells twice with 2.0 mL ice cold PBS buffer • aspirate supernatant from cells after each washing step • lyse cells with 100 μL Ripa lysis buffer per well • scrape cells with cell scraper and transfer lysates to Eppendorf Cups • incubate for 15 min on ice • centrifuge […] at 13000×g and 4° C. • transfer supernatants to fresh Eppendorf cups • removal of 20 μL lysate for BCA assay • aliquot and freeze at −20° C.
Determination of protein concentration of lysates with BCA Protein Assay Kit. BSA supplied with the kit is 2 mg/mL.
Dilute the standard (Stock BSA concentration=2 mg/mL) in a 96 well plate: Samples were run 1:4. Dilute in lysing buffer, lysing buffer alone was run to determine the background from detergents in the assay.
BCA reagent: Dilute Reagent A and Reagent B in a 1:50 ratio. To 9.8 mL A add 200 μL B.
Assay Procedure: Pipette 5 μL/well of standard or samples to 96 wells (see plate layout). Samples were run in duplicate. Blanks=5 μL/well PBS or 5 μL/well lysing buffer. Add 100 μL/well of the prepared BCA reagent. Tap plate to mix or shake for 1-2 min on the Eppendorf mixer. Incubate at 37° C. for 30 min.
Read the OD at 562 nm. Plate was read on EnVision 2104 Multilabel Reader (Perkin Elmer, Equipment Number 70160330) last verification of instrument 17.08.2017 (once a year) (A25/531). AEH181012_BCA.csv
In EXCEL the duplicates were averaged and the average background PBS was subtracted for the standard curve.
A trend line was created, the intercept (b) was set at 0. The R^2 should be >0.950 for acceptable results. The lysate buffer blank was subtracted from the test values and the averaged, background-corrected O.D. values were used with the equation to calculate mg/ml and then were corrected for the dilution factor for the final mg/mL value. Only results from OD values within the range of the standard curve are acceptable. Values outside of the standard curve range are ignored. BCA AEH00350 Berechnung.xlsx
6. Sample Calculation and Preparation • thaw lysates of AEH00350 on ice • calculate sample volume for Western Blot loading 10 μg total protein/13 μL per slot: • dilute samples with lysis buffer and 10× reducing agent & 4×LDS buffer to 10 μg. • heat them at 70° C. for 10 min and 1000 rmp
7. […]
On the technique in general: In western blotting, separated proteins are transferred to a membrane and probed.
Target sequence in this assay (P50579 whole entry, the tested form may be a part): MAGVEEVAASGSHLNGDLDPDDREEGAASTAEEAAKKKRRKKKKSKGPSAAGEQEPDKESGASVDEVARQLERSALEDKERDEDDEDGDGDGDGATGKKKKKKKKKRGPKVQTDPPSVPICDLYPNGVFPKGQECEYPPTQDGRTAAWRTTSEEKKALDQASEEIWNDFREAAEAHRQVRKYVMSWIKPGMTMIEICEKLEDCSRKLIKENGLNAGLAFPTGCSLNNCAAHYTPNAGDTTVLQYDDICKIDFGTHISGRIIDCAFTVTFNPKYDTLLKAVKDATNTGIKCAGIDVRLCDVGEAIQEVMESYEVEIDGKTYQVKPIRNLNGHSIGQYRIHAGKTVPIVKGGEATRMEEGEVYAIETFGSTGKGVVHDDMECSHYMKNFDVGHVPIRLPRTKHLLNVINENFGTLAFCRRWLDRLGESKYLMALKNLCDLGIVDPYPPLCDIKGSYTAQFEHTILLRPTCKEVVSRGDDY

Test [4] addresses T1, MetAP-2. The description is as above. As to conditions: 0.1 μM, 6 hrs, HTC116 cells; <1 means degradation. The class given is cell-based. Further details: endogenous in cells; host or cells: HCT116.
Target sequence in this assay (P50579 whole entry, the tested form may be a part): as above

Molecules are shown by their SMILES.

The term IC50 denotes the concentration needed to halve the response being measured. Turning to `Cc1ncsc1-c1ccc(CNC(=O)[C@@H]2C[C@@H](O)CN2C(=O)[C@@H](NC(=O)CCCCCNC(=O)c2cc3cc(N4CC[C@@](O)(C(=O)NCc5cc(F)cc(F)c5)C4=O)ccc3[nH]2)C(C)(C)C)cc1` (mixture of isomers) [Compound A3, (3RS)—N-[(3,5-difluorophenyl)methyl]-3-hydroxy-1-{2-[(5-{[(2S)-1-[(2S,4R)-4-hydroxy-2-({[4-(4-methyl-1,3-thiazol-5-yl)phenyl]methyl}carbamoyl)pyrrolidin-1-yl]-3,3-dimethyl-1-oxobutan-2-yl]carbamoyl}pentyl)carbamoyl]-1H-indol-5-yl}-2-oxopyrrolidine-3-carboxamide], the IC50 was 550 nM against MetAP-2 [1] and 30000 nM in test [2].

Regarding `O=C1CCC(N2C(=O)c3ccc(NCCCCCNC(=O)c4cc5cc(N6CCC(O)(C(=O)NCc7cc(F)cc(F)c7)C6=O)ccc5[nH]4)cc3C2=O)C(=O)N1` (centres unmarked) [Compound A4, 5-[3-[(3,5-difluorophenyl)methylcarbamoyl]-3-hydroxy-2-oxo-pyrrolidin-1-yl]-N-[5-[[2-(2,6-dioxo-3-piperidyl)-1,3-dioxo-isoindolin-5-yl]amino]pentyl]-1H-indole-2-carboxamide], the IC50 against MetAP-2 [1] came to 480 nM; in test [2], 1600 nM.

In the case of `O=C1CCC(N2C(=O)c3cccc(NCCOCCOCCNC(=O)c4cc5cc(N6CCC(O)(C(=O)NCc7cc(F)cc(F)c7)C6=O)ccc5[nH]4)c3C2=O)C(=O)N1` (centres unmarked) [Compound A5, 5-[3-[(3,5-difluorophenyl)methylcarbamoyl]-3-hydroxy-2-oxo-pyrrolidin-1-yl]-N-[2-[2-[2-[[2-(2,6-dioxo-3-piperidyl)-1,3-dioxo-isoindolin-4-yl]amino]ethoxy]-ethoxy]ethyl]-1-H-indole-2-carboxamide], the IC50 against MetAP-2 [1] was determined as 330 nM; in test [2] it was 5800 nM.

Consider `Cc1ncsc1-c1ccc(CNC(=O)[C@@H]2C[C@@H](O)CN2C(=O)[C@@H](NC(=O)COCCOCCNC(=O)c2cc3cc(N4CCC(O)(C(=O)NCc5cc(F)cc(F)c5)C4=O)ccc3[nH]2)C(C)(C)C)cc1` (stereo partly drawn) [Compound A6, 5-[3-[(3,5-difluorophenyl)methylcarbamoyl]-3-hydroxy-2-oxo-pyrrolidin-1-yl]-N-[2-[2-[2-[[(1S)-1-[(2S,4R)-4-hydroxy-2-[[4-(4-methylthiazol-5-yl)phenyl]methylcarbamoyl]pyrrolidine-1-carbonyl]-2,2-dimethyl-propyl]amino]-2-oxoethoxy]ethoxy]ethyl]-1H-indole-2-carboxamide], for which the results for the IC50 (at MetAP-2 [1]; in test [2]) were 370 nM and 30000 nM, respectively.

On to `Cc1ncsc1-c1ccc(CNC(=O)[C@@H]2C[C@@H](O)CN2C(=O)[C@@H](NC(=O)COCCOCCOCCOCCNC(=O)c2cc3cc(N4CCC(O)(C(=O)NCc5cc(F)cc(F)c5)C4=O)ccc3[nH]2)C(C)(C)C)cc1` (some centres unmarked) [Compound A7], for which the IC50 turned out to be 320 nM on MetAP-2 [1] and 7300 nM in test [2].

Take `Cc1ncsc1-c1ccc(CNC(=O)[C@@H]2C[C@@H](O)CN2C(=O)[C@@H](NC(=O)COCCOCCOCCOCCOCCNC(=O)c2cc3cc(N4CCC(O)(C(=O)NCc5cc(F)cc(F)c5)C4=O)ccc3[nH]2)C(C)(C)C)cc1` (stereo partly drawn) [Compound A8, 5-[3-[(3,5-difluorophenyl)methylcarbamoyl]-3-hydroxy-2-oxo-pyrrolidin-1-yl]-N-[2-[2-[2-[2-[2-[2-[[(1S)-1-[(2S,4R)-4-hydroxy-2-[[4-(4-methylthiazol-5-yl)phenyl]-methylcarbamoyl]pyrrolidine-1-carbonyl]-2,2-dimethyl-propyl]amino]-2-oxoethoxy]ethoxy]ethoxy]ethoxy]ethoxy]ethyl]-1H-indole-2-carboxamide]: the IC50 against MetAP-2 [1] came to 330 nM; in test [2], 30000 nM.

With `O=C1CCC(N2C(=O)c3cccc(NCCOCCOCCOCCOCCOCCNC(=O)c4cc5cc(N6CC(O)C(O)(C(=O)NCc7cc(F)cc(F)c7)C6=O)ccc5[nH]4)c3C2=O)C(=O)N1` (centres unmarked) [Compound A21, 5-[3-[(3,5-difluorophenyl)methylcarbamoyl]-3,4-dihydroxy-2-oxo-pyrrolidin-1-yl]-N-[2-[2-[2-[2-[2-[2-[[2-(2,6-dioxo-3-piperidyl)-1,3-dioxo-isoindolin-4-yl]amino]ethoxy]ethoxy]ethoxy]ethoxy]ethoxy]ethyl]-1H-indole-2-carboxamide], the “Signal MetAp2/GAPDH normalized to untreated (DMSO)” value at MetAP-2 [3] was found to be 1.2; on MetAP-2 [4], 1.3.
